This note sets out measurements from paper PMC11189555, “Aryl amino acetamides prevent Plasmodium falciparum ring development via targeting the lipid-transfer protein PfSTART1” (Nature Communications, 2024).

Values joined by “and” are separate entries in the source; they are usually repeats but may differ in a detail not shown here. Identical values can stand only once.

One assay has as its system RECQ1 (Q8I2W7). The assay is described as follows: Solvent-PISA (solvent proteome profiling, DIA-MS). It is filed as binding, Plasmodium falciparum. Particulars: WEHI991_vs_DMSO, gradient G1, RECQ1.
Another assay deals with LSG1 (Q8ILF2). Briefly: Solvent-PISA (solvent proteome profiling, DIA-MS). It counts as binding, Plasmodium falciparum. The settings on record: WEHI991_vs_DMSO, gradient G1, LSG1.
The subject of a further assay is VPS51 (Q8I2A9). The assay is described as follows: Solvent-PISA (solvent proteome profiling, DIA-MS). It counts as binding, Plasmodium falciparum. The settings on record: WEHI991_vs_DMSO, gradient G1, VPS51.
The subject of assay [1] is P. berghei sporozoites invading HC-04 human liver cells. Briefly: In vitro liver invasion assay. The settings on record: Replicate 1 and 2. It counts as cell-based, Plasmodium berghei. On the procedure:
P. berghei ANKA constitutively expressing mCherry[82] was used for the in vitro liver stage invasion assay. Animals used for the generation of the sporozoites were 4- to 5-week-old male Swiss Webster mice and were purchased from the Monash Animal Services (Melbourne, Victoria, Australia) and housed at 22 to 25 °C on a 12 h light/dark cycle with 40-70% humidity at the School of Biosciences, The University of Melbourne, Australia. All animal experiments were in accordance with the Prevention of Cruelty to Animals Act 1986, the Prevention of Cruelty to Animals Regulations 2008, and National Health and Medical Research Council (2013) Australian code for the care and use of animals for scientific purposes. These experiments were reviewed and permitted by the Melbourne University Animal Ethics Committee (2015123).
Infections of naïve Swiss mice were carried out by intraperitoneal (IP) inoculation obtained from a donor mouse between the first and fourth passages from cryopreserved stock. Parasitemia was monitored by Giemsa smear and exflagellation quantified 3 days post-infection. A. stephensi mosquitoes were allowed to feed on anaesthetised mice once the exflagellation rate was assessed between about 12 to 15 exflagellation events per 1 × 10^4 RBCs. Salivary glands of infected mosquitoes (days 17 to 24 post-infection) were isolated by dissection and parasites placed into RPMI-1640 media.
This was performed essentially as described[83] with the minor variations outlined in the Supplementary Information. […]
In vitro liver invasion assays. This was performed essentially as described16 with the following variations. In vitro human liver HCO4 cells (ATCC) were seeded at 1 × 10^5 cells/mL, grown for 24 h and then infected for 2 h with 30,000 Pb ANKA mCherry […]
expressing sporozoites. Following fixation, an IFA with anti -CSP antibody (1:500) followed by anti-mouse Alexafluor 488 (1:1 ,000; Invitrogen, Carlsbad, CA, USA) labels uninvaded parasites. Fluorescence signal was assessed using an Olympus CKX41 epifluorescence microscope. […]
Gametogenesis was then triggered by the addition of 10 μL ookinete medium (gametocyte culture medium supplemented with 100 μM xanthurenic acid and 0.27 µg/mL Cy3-labelled anti-Pfs25 antibody) to each well at room temperature. Plates were then cooled on a metal block at 4°C for four min to ensure even cooling and then stabilised for a further 4 min at 28°C. At 20 min post-induction, male gametogenesis was recorded in each well by automated brightfield microscopy using a x4 objective lens and 1.5x magnifier (x6 effective magnification). Afterward, plates were incubated in the dark at room temperature for 24 h and then female gametogenesis recorded in each well by automated fluorescence microscopy (anti-Pfs25-positive cells). All experiments were performed in quadruplicate with DMSO and cabamiquine (DDD107498)17 as negative and positive controls respectively. All data was evaluated in comparison to the positive and negative controls to calculate percentage inhibition of male and female gametocytes, and dose response analysis and IC50 calculation performed using GraphPad Prism. […]
The pellet was subjected to five

A further assay deals with Hyp1-Nluc parasites. The assay is described as follows: Egress, invasion & recovery assay (Nluc bioluminescence, smears). It is filed as cell-based, Plasmodium falciparum. The settings on record: schizonts treated 4 h: M-833 2 µM, W-991 60 nM, ML10 30 nM, E64 10 µM, heparin 100 µg/mL; then washed off. From the text: To measure egress, invasion, and follow-up recovery in the presence of different compounds, we adapted the method developed in[11], using Hyp1-Nluc parasites. A full description is in the Supplementary Information. […]
and compound 4. Note that M-833 was first purchased from MolPort (MolPort -002-267-916) then made in-house at WEHI: the differences observed in EC50s across experiments are attributed to the different batches of M -833. […]
Egress, invasion & recovery assay. To measure egress, invasion and follow up recovery in the presence of different compounds, we adapted the method developed in6, using Hyp1-Nluc parasites7. These parasites episomally express the exported PEXEL protein Hyp1 (PF3D7_0113300) tagged with a NanoLuc luciferase (NLuc) and were selected with 2.5 nM WR99210 (Jacobus). Highly synchronised schizonts were obtained using ML10 (LifeArc) and sorbitol synchronisation, and Percoll-purified (the culture was gently layered over 67% Percoll (Cytiva) in RPMI, and centrifuged for 15 min at 1500 g and the schizont layer was collected and washed). In a 96-well plate, […]
cultures were set up in 4 replicates (3 replicates for the Nluc readout, and one replicate for Giemsa smears) with 1-2% parasitemia, 2% haematocrit, with the following […]
100 μg/ml heparin (Sigma) and 10 μM E64 (Sigma). The schizonts were allowed to egress and invade for 4 h at 37°C. A “background” plate without treatment was left in the fridge during this time. After 4 h, cultures were sorbitol -treated to eliminate schizonts that have not egressed. Smears were made every day for the following 3 days, and 5 μL of the resuspended cultures were taken to measure Nluc activity (to assess parasite’s presence). To measure Nluc activity, 5 μL culture were added to 45 μL NanoGlo reagent (1x Promega lysis buffer and NanoGlo reagent; Promega). The average luminescence of the background cultures was subtracted to the average luminescence of each sample. […]
The viable parasite value was then expressed in log units and parasite reduction ratio was calculated as a decrease in […]

As for `CC(C)(Nc1ccc(Cl)c(S(=O)(=O)N2CCOCC2)c1)C(=O)Nc1ccc(F)c(Cl)c1` [WEHI991], the results for the Differential abundance in the assay with RECQ1 (Q8I2W7), in the assay with LSG1 (Q8ILF2) and in the assay with VPS51 (Q8I2A9) were 0.6685, 0.5417 and 0.7605, respectively.
Regarding `C=C1[C@@H](C)[C@H]2[C@H](Cc3ccccc3)NC(=O)[C@]23[C@H](OC(C)=O)/C=C/[C@@](C)(O)C(=O)[C@@H](C)C/C=C/[C@H]3[C@@H]1O` [cytD, cytochalasin D, reference compound], the “Liver stage invasion assay: in” value in assay [1] (count of sporozoites inside cells) was 2. Besides, the “Liver stage invasion assay: out” value in assay [1] (count of sporozoites outside cells) is 118 and 305. Moreover, the “Liver stage invasion assay: ratio” value in assay [1] (in relative to in + out) is 1.667 and 0.6515.
For the compound heparin [reference compound], the “parasite growth (Nluc bioluminescence) followed 72 h after 4 h treatment” value with Hyp1-Nluc parasites is listed as “virtually no recovery after three days”.
